Reference: the CheMixHub viscosity set
± gives the uncertainty stated by the source.

Experiment: xn = mol fraction of the nth substance listed
Conditions: 101 kPa

Structure (SMILES): CS(C)=O + CC#N
- viscosity (298 K, x1 = 0.2): 0.5206 ± 0.04 mPa·s
- viscosity (298 K, x1 = 0.4): 0.8409 ± 0.04 mPa·s
- viscosity (298 K, x1 = 0.6): 1.16 ± 0.041 mPa·s
- viscosity (298 K, x1 = 0.8): 1.42 ± 0.041 mPa·s
- viscosity (298.15 K, x1 = 0.2): 0.477 ± 0.01 mPa·s
- viscosity (298.15 K, x1 = 0.4): 0.687 ± 0.016 mPa·s
- viscosity (298.15 K, x1 = 0.6): 0.987 ± 0.022 mPa·s
- viscosity (298.15 K, x1 = 0.8): 1.42 ± 0.029 mPa·s
- viscosity (298.15 K, x2 = 0.0249): 1.911 ± 0.029 mPa·s
- viscosity (298.15 K, x2 = 0.0518): 1.824 ± 0.028 mPa·s
- viscosity (298.15 K, x2 = 0.0759): 1.75 ± 0.027 mPa·s
- viscosity (298.15 K, x2 = 0.1079): 1.658 ± 0.025 mPa·s
- viscosity (298.15 K, x2 = 0.157): 1.527 ± 0.024 mPa·s
- viscosity (298.15 K, x2 = 0.1998): 1.422 ± 0.022 mPa·s
- viscosity (298.15 K, x2 = 0.2609): 1.281 ± 0.02 mPa·s
- viscosity (298.15 K, x2 = 0.3034): 1.188 ± 0.019 mPa·s
- viscosity (298.15 K, x2 = 0.3548): 1.082 ± 0.017 mPa·s
- viscosity (298.15 K, x2 = 0.411): 0.9742 ± 0.016 mPa·s
- viscosity (298.15 K, x2 = 0.4696): 0.8699 ± 0.015 mPa·s
- viscosity (298.15 K, x2 = 0.5084): 0.8053 ± 0.014 mPa·s
- viscosity (298.15 K, x2 = 0.5566): 0.7292 ± 0.013 mPa·s
- viscosity (298.15 K, x2 = 0.6053): 0.6586 ± 0.011 mPa·s
- viscosity (298.15 K, x2 = 0.6666): 0.5821 ± 0.01 mPa·s
- viscosity (298.15 K, x2 = 0.7114): 0.5345 ± 0.0097 mPa·s
- viscosity (298.15 K, x2 = 0.7688): 0.4819 ± 0.0089 mPa·s
- viscosity (298.15 K, x2 = 0.8081): 0.4514 ± 0.0085 mPa·s
- viscosity (298.15 K, x2 = 0.851): 0.4225 ± 0.008 mPa·s
- viscosity (298.15 K, x2 = 0.9009): 0.3934 ± 0.0076 mPa·s
- viscosity (298.15 K, x2 = 0.9502): 0.3658 ± 0.0072 mPa·s
- viscosity (303.15 K, x2 = 0.0249): 1.762 ± 0.027 mPa·s
- viscosity (303.15 K, x2 = 0.0518): 1.684 ± 0.026 mPa·s
- viscosity (303.15 K, x2 = 0.0759): 1.617 ± 0.025 mPa·s
- viscosity (303.15 K, x2 = 0.1079): 1.531 ± 0.024 mPa·s
- viscosity (303.15 K, x2 = 0.157): 1.406 ± 0.022 mPa·s
- viscosity (303.15 K, x2 = 0.1998): 1.306 ± 0.021 mPa·s
- viscosity (303.15 K, x2 = 0.3034): 1.085 ± 0.018 mPa·s
- viscosity (303.15 K, x2 = 0.3548): 0.9867 ± 0.016 mPa·s
- viscosity (303.15 K, x2 = 0.411): 0.8848 ± 0.015 mPa·s
- viscosity (303.15 K, x2 = 0.4696): 0.7875 ± 0.013 mPa·s
- viscosity (303.15 K, x2 = 0.5084): 0.7285 ± 0.013 mPa·s
- viscosity (303.15 K, x2 = 0.5566): 0.6595 ± 0.011 mPa·s
- viscosity (303.15 K, x2 = 0.6053): 0.5945 ± 0.011 mPa·s
- viscosity (303.15 K, x2 = 0.6666): 0.5266 ± 0.0096 mPa·s
- viscosity (303.15 K, x2 = 0.7114): 0.4841 ± 0.009 mPa·s
- viscosity (303.15 K, x2 = 0.7688): 0.4392 ± 0.0083 mPa·s
- viscosity (303.15 K, x2 = 0.8081): 0.4129 ± 0.0079 mPa·s
- viscosity (303.15 K, x2 = 0.851): 0.3905 ± 0.0075 mPa·s
- viscosity (303.15 K, x2 = 0.9009): 0.368 ± 0.0072 mPa·s
- viscosity (303.15 K, x2 = 0.9502): 0.3478 ± 0.0069 mPa·s
- viscosity (308 K, x1 = 0.4): 0.6302 ± 0.04 mPa·s
- viscosity (308 K, x1 = 0.6): 0.8402 ± 0.04 mPa·s
- viscosity (308 K, x1 = 0.8): 1.161 ± 0.041 mPa·s
- viscosity (308.15 K, x2 = 0.0249): 1.61 ± 0.025 mPa·s
- viscosity (308.15 K, x2 = 0.0518): 1.544 ± 0.024 mPa·s
- viscosity (308.15 K, x2 = 0.0759): 1.485 ± 0.023 mPa·s
- viscosity (308.15 K, x2 = 0.1079): 1.405 ± 0.022 mPa·s
- viscosity (308.15 K, x2 = 0.1998): 1.194 ± 0.019 mPa·s
- viscosity (308.15 K, x2 = 0.2609): 1.066 ± 0.017 mPa·s
- viscosity (308.15 K, x2 = 0.3034): 0.9838 ± 0.016 mPa·s
- viscosity (308.15 K, x2 = 0.3548): 0.8905 ± 0.015 mPa·s
- viscosity (308.15 K, x2 = 0.411): 0.7978 ± 0.013 mPa·s
- viscosity (308.15 K, x2 = 0.4696): 0.7092 ± 0.012 mPa·s
- viscosity (308.15 K, x2 = 0.5084): 0.6554 ± 0.011 mPa·s
- viscosity (308.15 K, x2 = 0.5566): 0.5949 ± 0.011 mPa·s
- viscosity (308.15 K, x2 = 0.6053): 0.5379 ± 0.0098 mPa·s
- viscosity (308.15 K, x2 = 0.6666): 0.4786 ± 0.0089 mPa·s
- viscosity (308.15 K, x2 = 0.7114): 0.4428 ± 0.0083 mPa·s
- viscosity (308.15 K, x2 = 0.7688): 0.4048 ± 0.0078 mPa·s
- viscosity (308.15 K, x2 = 0.8081): 0.3833 ± 0.0074 mPa·s
- viscosity (308.15 K, x2 = 0.851): 0.3645 ± 0.0072 mPa·s
- viscosity (308.15 K, x2 = 0.9009): 0.3459 ± 0.0069 mPa·s
- viscosity (308.15 K, x2 = 0.9502): 0.3285 ± 0.0066 mPa·s
- viscosity (313.15 K, x2 = 0.0249): 1.484 ± 0.023 mPa·s
- viscosity (313.15 K, x2 = 0.0518): 1.425 ± 0.022 mPa·s
- viscosity (313.15 K, x2 = 0.0759): 1.371 ± 0.022 mPa·s
- viscosity (313.15 K, x2 = 0.1079): 1.298 ± 0.021 mPa·s
- viscosity (313.15 K, x2 = 0.1998): 1.098 ± 0.018 mPa·s
- viscosity (313.15 K, x2 = 0.2609): 0.9759 ± 0.016 mPa·s
- viscosity (313.15 K, x2 = 0.3034): 0.898 ± 0.015 mPa·s
- viscosity (313.15 K, x2 = 0.3548): 0.8098 ± 0.014 mPa·s
- viscosity (313.15 K, x2 = 0.411): 0.7219 ± 0.012 mPa·s
- viscosity (313.15 K, x2 = 0.4696): 0.6398 ± 0.011 mPa·s
- viscosity (313.15 K, x2 = 0.5084): 0.591 ± 0.01 mPa·s
- viscosity (313.15 K, x2 = 0.5566): 0.5366 ± 0.0097 mPa·s
- viscosity (313.15 K, x2 = 0.6053): 0.4862 ± 0.009 mPa·s
- viscosity (313.15 K, x2 = 0.6666): 0.435 ± 0.0082 mPa·s
- viscosity (313.15 K, x2 = 0.7114): 0.4044 ± 0.0078 mPa·s
- viscosity (313.15 K, x2 = 0.7688): 0.3727 ± 0.0073 mPa·s
- viscosity (313.15 K, x2 = 0.8081): 0.3554 ± 0.0071 mPa·s
- viscosity (313.15 K, x2 = 0.851): 0.3396 ± 0.0068 mPa·s
- viscosity (313.15 K, x2 = 0.9009): 0.3257 ± 0.0066 mPa·s
- viscosity (318 K, x1 = 0.2): 0.3814 ± 0.04 mPa·s
- viscosity (318 K, x1 = 0.4): 0.4513 ± 0.04 mPa·s
- viscosity (318 K, x1 = 0.8): 0.8203 ± 0.04 mPa·s
- viscosity (318.15 K, x2 = 0.0249): 1.348 ± 0.021 mPa·s
- viscosity (318.15 K, x2 = 0.0518): 1.295 ± 0.021 mPa·s
- viscosity (318.15 K, x2 = 0.0759): 1.247 ± 0.02 mPa·s
- viscosity (318.15 K, x2 = 0.1079): 1.18 ± 0.019 mPa·s
- viscosity (318.15 K, x2 = 0.157): 1.082 ± 0.018 mPa·s
- viscosity (318.15 K, x2 = 0.1998): 1 ± 0.016 mPa·s
- viscosity (318.15 K, x2 = 0.2609): 0.8875 ± 0.015 mPa·s
- viscosity (318.15 K, x2 = 0.3034): 0.8161 ± 0.014 mPa·s
- viscosity (318.15 K, x2 = 0.3548): 0.7348 ± 0.013 mPa·s
- viscosity (318.15 K, x2 = 0.411): 0.6547 ± 0.011 mPa·s
- viscosity (318.15 K, x2 = 0.4696): 0.5794 ± 0.01 mPa·s
- viscosity (318.15 K, x2 = 0.5084): 0.5348 ± 0.0097 mPa·s
- viscosity (318.15 K, x2 = 0.5566): 0.4864 ± 0.009 mPa·s
- viscosity (318.15 K, x2 = 0.6053): 0.4403 ± 0.0083 mPa·s
- viscosity (318.15 K, x2 = 0.6666): 0.3971 ± 0.0077 mPa·s
- viscosity (318.15 K, x2 = 0.7114): 0.37 ± 0.0073 mPa·s
- viscosity (318.15 K, x2 = 0.7688): 0.3423 ± 0.0069 mPa·s
- viscosity (318.15 K, x2 = 0.8081): 0.3298 ± 0.0067 mPa·s
- viscosity (318.15 K, x2 = 0.851): 0.3178 ± 0.0065 mPa·s
- viscosity (318.15 K, x2 = 0.9009): 0.3062 ± 0.0063 mPa·s
